# Results taken from US8372807B2, “Methods of modulating uric acid levels” (Ardea Biosciences, Inc., priority 2009, dated 2013).
# Target: T1, hURAT1 transporter (URAT-1) (Homo sapiens, UniProt Q96S37)
# T1 construct: Full-length human URAT1 gene (SLC22A12) was subcloned from plasmid pCMV6-XL5
# T1 sequence (Q96S37 1-553): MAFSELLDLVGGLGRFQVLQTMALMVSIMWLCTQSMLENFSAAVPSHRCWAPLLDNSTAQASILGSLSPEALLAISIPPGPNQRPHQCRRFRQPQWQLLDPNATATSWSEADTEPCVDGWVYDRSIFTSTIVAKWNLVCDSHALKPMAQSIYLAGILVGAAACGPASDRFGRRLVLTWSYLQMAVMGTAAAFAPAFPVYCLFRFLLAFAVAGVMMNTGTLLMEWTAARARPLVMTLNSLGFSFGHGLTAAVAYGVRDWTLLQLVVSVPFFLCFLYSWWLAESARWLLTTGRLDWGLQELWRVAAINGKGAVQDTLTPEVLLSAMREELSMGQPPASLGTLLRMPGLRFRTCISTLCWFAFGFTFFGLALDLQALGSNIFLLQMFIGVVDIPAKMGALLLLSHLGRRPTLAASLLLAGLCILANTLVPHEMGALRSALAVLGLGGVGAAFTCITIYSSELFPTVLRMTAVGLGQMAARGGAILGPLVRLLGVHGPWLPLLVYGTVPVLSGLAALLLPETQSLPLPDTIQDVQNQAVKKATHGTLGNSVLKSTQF
# Assay: Uric Acid Uptake Assay (URAT-1 EC50)
# Type: cell-based
# Details: HEK293/urat1 cells, C14 uric acid uptake, 40 μM uric acid, 10 minutes at room temperature
# Source text: Uric Acid Uptake Assay (URAT-1 EC50)
# Creation of Stable Cell Lines Expressing hURAT1 Transporter: Full-length human URAT1 gene (SLC22A12) was subcloned from plasmid pCMV6-XL5 (Origene) into eukaryotic expression plasmid pCMV6/Neo (Origene) using Not I restriction sites. Gene sequencing confirmed the sequence of hURAT1 as outlined in Genbank (Accession #NM_144585.2). HEK293 human embryonic kidney cells (ATCC#CRL-1573) were propagated in EMEM tissue culture medium as described by ATCC in an atmosphere of 5% CO2 and 95% air. Transfections of HEK293 cells with the pCMV6/Neo/URAT1 construct were performed using L2000 transfection reagent (Invitrogen) as described by the manufacturer. After 24 h the transfected cells were split into 10 cm tissue culture plates and grown for 1 day after which the medium was replaced with fresh growth medium containing G418 (Gibco) at 0.5 mg/ml final concentration. Drug-resistant colonies were selected after approximately 8 days and then tested for ^14C-uric acid transport activity. The HEK293/urat1 cells are plated on Poly-D-Lysine Coated 96-well Plates at a density of 75,000 cells per well.
# Cells were grown overnight (20-26 hours) at 37° C. in an incubator. Plates were allowed to come to room temperature and media was washed out with one wash of 250 μl of Wash Buffer (125 mM Na Gluconate, 10 mM Hepes pH 7.3). Compound or vehicle is added in assay buffer with C14 Uric Acid for a final concentration of 40 μM Uric Acid with a specific activity of 54 mCi/mmol Assay Buffer is 125 mM Sodium Gluconate, 4.8 mM Potassium Gluconate, 1.2 mM Potassium phosphate, monobasic, 1.2 mM magnesium sulfate, 1.3 mM Ca Gluconate, 5.6 mM Glucose, 25 mM HEPES, pH 7.3. Plates were incubated at room temperature for 10 minutes then washed 3 times with 50 μl Wash Buffer and 3 times with 250 μl Wash Buffer. Microscint 20 Scintillation Fluid was added and plates were incubated overnight at 45° C. to equilibrate. Plates are then read on the TopCount Plate Reader and an EC50 value generated. (See Enomoto et al, Nature, 2002, 417, 447-451 and Anzai et al, J. Biol. Chem., 2004, 279, 45942-45950.)
# Compounds prepared as described above in examples 24-32, were examined according to the procedure described herein and EC50 values generated. The table below summarizes the activity of the compounds in the Uric Acid Uptake Assay, wherein
row,SMILES,EC50
1,"CCOC(=O)C(C)(C)Oc1n[nH]c(C)c1-c1cccc2ccccc12 [26 (step C), Ethyl 2-methyl-2-(5-methyl-4-(naphthalen-1-yl)-1H-pyrazol-3-yloxy)propanoate]",< 5 µM
2,"Cc1[nH]nc(OC(C)(C)C(=O)O)c1-c1cccc2ccccc12 [26 (step D), 2-methyl-2-(5-methyl-4-(naphthalen-1-yl)-1H-pyrazol-3-yloxy)propanoic acid]",< 5 µM
3,"CC(C)(Oc1ccnn1-c1cccc2ccccc12)C(=O)O [Example 24, 2-Methyl-2-(1-(naphthalen-1-yl)-1H-pyrazol-5-yloxy)propanoic acid]",5 to 20 µM
4,"CC(C)(Sc1ccnn1-c1cccc2ccccc12)C(=O)O [Example 25, 2-Methyl-2-(1-(naphthalen-1-yl)-1H-pyrazol-5-ylthio)propanoic acid]",< 5 µM

# Continued, values first:
row,EC50,SMILES
1,< 5 µM,"CC(C)(Sc1cnnn1-c1cccc2ccccc12)C(=O)O [Example 28, 2-Methyl-2-(1-(naphthalen-1-yl)-1H-1,2,3-triazol-5-ylthio)propanoic acid]"
2,< 5 µM,"CC(C)(Sc1nnnn1-c1cccc2ccccc12)C(=O)O [Example 30, 2-Methyl-2-(1-(naphthalen-1-yl)-1H-tetrazol-5-ylthio)propanoic acid]"
3,5 to 20 µM,"O=C(O)CSc1snnc1-c1cccc2ccccc12 [Example 32, 2-(4-(Naphthalen-1-yl)-1,2,3-thiadiazol-5-ylthio)acetic acid]"
